Laboratory results: ChEMBL document CHEMBL5096192, “Recent advancements in anti-leishmanial research: Synthetic strategies and structural activity relationships” (Eur J Med Chem, 2021)
Converted amounts (≈) assume the structure as drawn. Each block holds one molecule with its values, some of them ahead of it.

What was measured:
[1] = test system: Leishmania infantum; experiment: Antileishmanial activity against promastigote form of Leishmania infantum MHOM/BR/70/BH46 promastigote assessed as parasite growth inhibition incubated for 72 hrs by Neubauer chamber analysis; assay type: functional, organism-based; details: MHOM/BR/70/BH46, 72 h
[2] = test system: Leishmania panamensis; experiment: Antileishmanial activity against Leishmania panamensis MHOM/CO/87/UA140pIR-GFP intracellular amastigotes infected in human U-937 cells assessed as parasite growth inhibition measured after 72 hrs by flow cytometry analysis; assay type: functional, organism-based; details: U-937, 72 h
[3] = test system: Leishmania major; experiment: Antileishmanial activity against Leishmania major axenic amastigotes assessed as parasite growth inhibition by Alamar blue assay; assay type: functional, organism-based
[4] = test system: Leishmania amazonensis; experiment: Antileishmanial activity against promastigote form of Leishmania amazonensis MHOM/BR/77/LTB0016 incubated for 24 hrs by MTT assay; assay type: functional, organism-based; details: MHOM/BR/77/LTB0016, 24 h
[5] = Cytotoxicity against BALB/c mouse peritoneal macrophages assessed as reduction in cell viability measured after 48 hrs by luminescence based CellTiter-Glo assay; assay type: toxicity, Peritoneal macrophage
[6] = test system: Leishmania infantum; experiment: Antileishmanial activity against promastigote form of Leishmania infantum BH 46 assessed as parasite growth inhibition measured after 48 hrs by Celltiter-Glo assay; assay type: functional, organism-based; details: BH 46, 48 h
[7] = test system: Leishmania donovani; experiment: Antileishmanial activity against promastigote form of wild-type Leishmania donovani MHOM/80/IN/Dd8 assessed as inhibition of parasite growth incubated for 48 hrs by MTT assay; assay type: functional, organism-based; details: MHOM/80/IN/Dd8, 48 h
[8] = Selectivity index, ratio of CC50 for cytotoxicity against human THP1 cells to IC50 for antileishmanial activity against promastigote form of Leishmania donovani; assay type: toxicity, cell-based; details: read-out: Ratio CC50/IC50
[9] = test system: Leishmania donovani; experiment: Antileishmanial activity against promastigote form of Leishmania donovani assessed as inhibition of promastigote growth incubated for 48 hrs by Alamar blue assay; assay type: functional, organism-based
[10] = test system: Leishmania donovani; experiment: Antileishmanial activity against promastigote form of Leishmania donovani MHOM/IN/83/AG83 assessed as inhibition of promastigote growth incubated for 48 hrs by MTT reduction assay; assay type: functional, organism-based; details: MHOM/IN/83/AG83, 48 h
[11] = test system: Leishmania donovani; experiment: Antileishmanial activity against Leishmania donovani MHOM/IN/83/AG83 intracellular amastigotes infected in mouse RAW264.7 cells assessed as parasite growth inhibition incubated for 48 hrs by Giemsa staining based microscopic analysis; assay type: functional, organism-based; details: MHOM/IN/83/AG83, RAW264.7, 48 h
[12] = test system: Leishmania mexicana; experiment: Antileishmanial activity against promastigote form of Leishmania mexicana assessed as inhibition of parasite growth measured for 10 days by Neubauer counting chamber based analysis; assay type: functional, organism-based; details: 240 h
[13] = test system: Leishmania mexicana; experiment: Inhibition of recombinant Leishmania mexicana CPB2.8 delta CTE at 20 uM
[14] = test system: Leishmania braziliensis; experiment: Antileishmanial activity against promastigote form of Leishmania braziliensis MHOM/BR/75/M2904 promastigotes assessed as parasite growth inhibition incubated for 48 hrs by resazurin assay; assay type: functional, organism-based; details: MHOM/BR/75/M2904, 48 h
[15] = test system: Leishmania amazonensis; experiment: Antileishmanial activity against promastigote form of Leishmania amazonensis (MHOM/BR/71973/M2269) assessed as parasite growth inhibition measured after 72 hrs by Neubauer counting chamber based analysis; assay type: functional, organism-based; details: MHOM/BR/71973/M2269, 72 h
[16] = test system: Leishmania amazonensis; experiment: Antileishmanial activity against Leishmania amazonensis (MHOM/BR/71973/M2269) intracellular amastigotes infected in mouse peritoneal macrophages assessed as parasite growth inhibition incubated for 24 hrs by Giemsa staining based light microscopy analysis; assay type: functional, organism-based; details: MHOM/BR/71973/M2269, Peritoneal macrophage
[17] = test system: Leishmania mexicana; experiment: Antileishmanial activity against mammalian stage Leishmania mexicana MNYC/BZ/62/M379 axenic amastigotes assessed as inhibition of […] incubated for 24 hrs by alamar blue assay; assay type: functional; details: read-out: ED50 (the source's name)
[18] = test system: Leishmania amazonensis; experiment: Antileishmanial activity against promastigote form of Leishmania amazonensis IFLA/BR/1967/PH8 assessed as parasite growth inhibition incubated for 72 hrs by MTT assay; assay type: functional, organism-based; details: IFLA/BR/1967/PH8, 72 h
[19] = test system: Leishmania infantum; experiment: Antileishmanial activity against Leishmania infantum MHOM/MA/67/ITMAP263 intracellular amastigotes infected in primary peritoneal mouse macrophages assessed as inhibition of parasite growth by cell based assay; assay type: functional, organism-based; details: MHOM/MA/67/ITMAP263, Peritoneal macrophage
[20] = Cytotoxicity against mouse J774.A1 cells assessed as reduction in cell viability incubated for 48 hrs by MTT assay; assay type: toxicity, cell-based

SMILES: CCc1ccc(NC(=S)N/N=C/c2c[nH]c3c(C)cc(Br)cc23)cc1
- IC50 [1]: 4.36 µM

SMILES: Cn1cc[n+](CCCOc2ccc(C(=O)/C=C/c3ccco3)cc2)c1
- EC50 [2]: 4.65 µM

SMILES: COc1ccc(-c2nn(-c3ccccc3)cc2/C=N/N=C/c2c(C)nn(-c3ccccc3)c2Cl)cc1
- IC50 [3]: 1.45 µM

SMILES: N=C(N)c1ccc(OCCCCCOc2ccc(C(=N)N)cc2)cc1 [PENTAMIDINE]
- IC50 [4]: 12.3 µM

SMILES: O=c1ccoc2cc(OCCCCCCCCCOc3cccc4cccnc34)ccc12
- EC50 [2]: 6.11 µg/mL

SMILES: COc1ccc(-c2csc(N/N=C/c3ccccn3)n2)cc1
- CC50 at 48 h [5]: 1.35 µM
- IC50 [6]: 2.78 µM

SMILES: CN(C)CCCn1cc(/C=C/C(=O)c2ccc(I)cc2)c2ccccc21
- IC50 [7]: 24.2 µM

SMILES: CC(C)CCN1C(=O)C=CC1=O
- selectivity ratio [8]: > 781
- IC50 [9]: < 0.0128 µg/mL

SMILES: Cc1ccc(-c2nn(-c3ccccc3)cc2/C=C/c2nnc(-c3sc4ccccc4c3Cl)o2)cc1
- IC50 [10]: 19 µg/mL (≈ 38.4 µM)
- IC50 [11]: 73.1 µg/mL (≈ 148 µM)

SMILES: Fc1ccc(Nc2cnc3ccccc3c2)cc1
- IC50 [12]: 41.9 µM

- inhibition [13]: 97%
SMILES: COC(=O)c1ccc(NC(=O)CSc2nc3ccccc3n2S(=O)(=O)c2cc(C)cc(C)c2)cc1

SMILES: CC(C)=CC1=C(OC(=O)CCc2cn(-c3ccc(C)cc3)nn2)C(=O)c2ccccc2C1=O
- IC50 [14]: 27.1 µM

SMILES: CC(C)COc1ccc2c(-c3ccccc3)cc(=O)oc2c1
- IC50 [15]: 21.4 µM
- IC50 [16]: 58.1 µM

SMILES: Cc1cc(N2C(=O)C(Cl)=C(Cl)C2=O)ccc1[N+](=O)[O-]
- selectivity ratio [8]: > 781
- IC50 [9]: < 0.0128 µg/mL

SMILES: O=c1ccoc2cc(OCCCCOc3cccc4ccccc34)ccc12
- EC50 [2]: 6.11 µg/mL

SMILES: CC1(C)CC[C@]2(NC(=O)N3CCC[C@H]3C(=O)O)CC[C@]3(C)C(=CC[C@@H]4[C@@]5(C)CC[C@@H]6OC(C)(C)OC[C@@]6(C)[C@@H]5CC[C@]43C)[C@@H]2C1
- EC50 [17]: 4 µM

SMILES: O=C(C[Se]CC(=O)Nc1ccc([N+](=O)[O-])cc1)Nc1ccc([N+](=O)[O-])cc1
- IC50 [18]: 5.67 µg/mL (≈ 13 µM)

SMILES: O=C(CC[Se]c1ccnc2cc(Cl)ccc12)Nc1ccc([N+](=O)[O-])cc1
- IC50 [18]: 10.8 µg/mL (≈ 24.9 µM)

SMILES: COc1ccc(-c2nn(-c3ccccc3)cc2/C=C/C(=O)c2ccc([N+](=O)[O-])cc2)cc1
- IC50 [3]: 2.3 µM

SMILES: COC(=O)c1ccc(NC(=O)CSc2nc3ccc(Cl)cc3n2Cc2cc(C)cc(C)c2)c(Cl)c1
- IC50 [19]: 6.82 µM

SMILES: O=C(/C=C/c1ccco1)c1ccc(OCCCCCOc2cccc3cccnc23)cc1
- EC50 [2]: 13.8 µM

SMILES: COc1ccc(-c2nnc(/C=C/c3cn(-c4ccccc4)nc3-c3ccccc3)o2)cc1OC
- IC50 [10]: 40.1 µg/mL (≈ 89 µM)
- IC50 [11]: 66.8 µg/mL (≈ 148 µM)

SMILES: NC(=S)N/N=C(\C=C\c1ccc(Cl)cc1)c1ccccc1
- IC50 [4]: 5.22 µM

SMILES: O=C1c2ccccc2C(=O)N1CCn1cc(-c2ccccc2)nn1
- CC50 at 48 h [20]: > 500 µM

SMILES: Fc1cccc(Nc2cnc3ccccc3c2)c1
- IC50 [12]: 41.9 µM
